# Results from patent publication US10323004B2, “Inhibitors of indoleamine 2,3-dioxygenase and methods of their use” (BRISTOL-MYERS SQUIBB COMPANY, priority 2016, dated 2019).
# Target: T1, human IDO1 (Homo sapiens, UniProt P14902)
# T1 construct: expressed in transfected cells
# Experiment: human IDO1/HEK293 cell IDO inhibition assay (kynurenine production)
# Format: cell-based
# Conditions: HEK293 cells stably expressing human IDO1; 20 hours incubation; absorbance at 490 nm; read-out: Biol. Activity (HEK μM) IDO IC50
# Experimental: HEK293 cells were transfected with a pCDNA-based mammalian expression vector harboring human IDO1 cDNA (NM 002164.2) by electroporation. They were cultured in medium (DMEM with 10% FBS) containing 1 mg/ml G418 for two weeks. Clones of HEK293 cells that stably expressed human IDO1 protein were selected and expanded for IDO inhibition assay.
# The human IDO1/HEK293 cells were seeded at 10,000 cells per 50 μL per well with RPMI/phenol red free media contains 10% FBS in a 384-well black wall clear bottom tissue culture plate (Matrix Technologies LLC) 100 nL of certain concentration of compound was then added to each well using ECHO liquid handling systems. The cells were incubated for 20 hours in 37° C. incubator with 5% CO2.
# The compound treatments were stopped by adding trichloroacetic acid (Sigma-Aldrich) to a final concentration at 0.2%. The cell plate was further incubated at 50° C. for 30 minute. The equal volume supernatant (20 μL) and 0.2% (w/v) Ehrlich reagent (4-dimethylaminobenzaldehyde, Sigma-Aldrich) in glacial acetic acid were mixed in a new clear bottom 384-well plate. This plate was then incubated at room temperature for 30 minute. The absorbance at 490 nm was measured on Envision plate reader.
# Compound IC50 values were calculated using the counts of 500 nM of a reference standard treatment as one hundred percent inhibition, and counts of no compound but DMSO treatment as zero percent inhibition.
# T1 sequence (P14902 whole entry): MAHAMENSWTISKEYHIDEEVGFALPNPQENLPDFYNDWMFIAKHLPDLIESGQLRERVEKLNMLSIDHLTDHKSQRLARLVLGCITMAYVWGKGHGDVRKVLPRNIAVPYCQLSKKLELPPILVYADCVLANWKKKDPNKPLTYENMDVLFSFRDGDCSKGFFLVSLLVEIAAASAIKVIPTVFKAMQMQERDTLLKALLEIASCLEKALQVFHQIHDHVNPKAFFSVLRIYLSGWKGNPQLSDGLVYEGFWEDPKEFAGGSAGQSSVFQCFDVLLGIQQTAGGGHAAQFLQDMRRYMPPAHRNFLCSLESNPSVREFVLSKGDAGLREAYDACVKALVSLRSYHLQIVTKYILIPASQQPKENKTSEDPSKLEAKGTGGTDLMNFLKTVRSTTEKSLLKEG
row,IC50,Compound
1,< 10 µM,"O=C(Cc1ccc(Cl)cc1)N(Cc1ccccc1)[C@H]1CC[C@H](c2ccnc3ccc(F)cc32)CC1 [Example 1, N-benzyl-2-(4-chlorophenyl)-N-(trans-4-(6-fluoroquinolin-4-yl)cyclohexyl)acetamide]"
2,< 1 µM,"O=C(c1ccc(Cl)cc1)N(Cc1ccccc1)[C@H]1CC[C@H](c2ccnc3ccc(F)cc32)CC1 [Example 2, N-benzyl-4-chloro-N-(trans-4-(6-fluoroquinolin-4-yl)cyclohexyl)benzamide]"
3,< 10 µM,"N#Cc1ccc(C(=O)N(Cc2ccccc2)[C@H]2CC[C@H](c3ccnc4ccc(F)cc43)CC2)cc1 [Example 3, N-benzyl-4-cyano-N-(trans-4-(6-fluoroquinolin-4-yl)cyclohexyl)benzamide]"
4,< 10 µM,"O=C(Cc1ccc(Cl)cc1)N(Cc1ccccc1)[C@H]1CC[C@@H](c2ccnc3ccc(F)cc32)CC1 [Example 4, N-benzyl-2-(4-chlorophenyl)-N-(cis-4-(6-fluoroquinolin-4-yl)cyclohexyl)acetamide]"
